Measured values: PubChem BioAssay (NCI)
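Five concentrations, 48 hours, 96-well plates. The concentration for full growth arrest is given as TGI.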

Legend:
Experiment in all cases: NCI-60 cell line screen, 48 h
NCI-H460 lung = system: NCI-H460 lung
786-0 renal = system: 786-0 renal
T-47D breast = system: T-47D breast
HOP-92 NSCLC = system: HOP-92 NSCLC
OVCAR-5 ovarian = system: OVCAR-5 ovarian
COLO 205 colon = system: COLO 205 colon
IGROV1 ovarian = system: IGROV1 ovarian
SR leukemia = system: SR leukemia
SF-295 CNS = system: SF-295 CNS
HCT-15 colon = system: HCT-15 colon
SN12C renal = system: SN12C renal
M14 melanoma = system: M14 melanoma
SW-620 colon = system: SW-620 colon
OVCAR-8 ovarian = system: OVCAR-8 ovarian
KM12 colon = system: KM12 colon
SK-MEL-5 melanoma = system: SK-MEL-5 melanoma
BT-549 breast = system: BT-549 breast
HT29 colon = system: HT29 colon
SK-MEL-28 melanoma = system: SK-MEL-28 melanoma
EKVX NSCLC = system: EKVX NSCLC
K-562 leukemia = system: K-562 leukemia
TK-10 renal = system: TK-10 renal
SF-539 CNS = system: SF-539 CNS
UACC-257 melanoma = system: UACC-257 melanoma
UO-31 renal = system: UO-31 renal
U251 CNS = system: U251 CNS
MDA-MB-231 breast = system: MDA-MB-231 breast
NCI-H23 lung = system: NCI-H23 lung
A549 NSCLC = system: A549 NSCLC
NCI/ADR-RES ovarian = system: NCI/ADR-RES ovarian
LOX IMVI melanoma = system: LOX IMVI melanoma
SK-OV-3 ovarian = system: SK-OV-3 ovarian
OVCAR-3 ovarian = system: OVCAR-3 ovarian
UACC-62 melanoma = system: UACC-62 melanoma
MDA-MB-435 = system: MDA-MB-435
HOP-62 NSCLC = system: HOP-62 NSCLC
PC-3 prostate = system: PC-3 prostate
DU-145 prostate = system: DU-145 prostate
CCRF-CEM leukemia = system: CCRF-CEM leukemia
HCC-2998 colon = system: HCC-2998 colon
MOLT-4 leukemia = system: MOLT-4 leukemia
HCT-116 colon = system: HCT-116 colon
MDA-N = system: MDA-N
HL-60(TB) leukemia = system: HL-60(TB) leukemia
MCF7 breast = system: MCF7 breast
OVCAR-4 ovarian = system: OVCAR-4 ovarian
SF-268 CNS = system: SF-268 CNS
SNB-19 CNS = system: SNB-19 CNS
SNB-75 CNS = system: SNB-75 CNS
NCI-H522 lung = system: NCI-H522 lung
NCI-H226 lung = system: NCI-H226 lung
CAKI-1 renal = system: CAKI-1 renal
A498 renal = system: A498 renal
SK-MEL-2 melanoma = system: SK-MEL-2 melanoma
RPMI-8226 leukemia = system: RPMI-8226 leukemia
ACHN renal = system: ACHN renal

`COc1cccc(-c2nc(-c3cnccn3)n(C3OC(CO)C(O)C3O)n2)c1` (configuration not stated) was tested, and the TGI (NCI-H460 lung) was greater than 100 µM, the TGI (786-0 renal) was greater than 100 µM and the TGI (T-47D breast) was greater than 100 µM. For the same molecule, the TGI (HOP-92 NSCLC) was greater than 100 µM, the TGI (OVCAR-5 ovarian) was greater than 100 µM and the TGI (COLO 205 colon) was greater than 100 µM. For the same molecule, the TGI (IGROV1 ovarian) was greater than 100 µM, the TGI (SR leukemia) was greater than 100 µM and the TGI (SF-295 CNS) was greater than 100 µM. It also gave a TGI (HCT-15 colon) greater than 100 µM, a TGI (SN12C renal) greater than 100 µM and a TGI (M14 melanoma) greater than 100 µM. For the same molecule, the TGI (SW-620 colon) was greater than 100 µM, the TGI (OVCAR-8 ovarian) was greater than 100 µM and the TGI (KM12 colon) was greater than 100 µM. For the same molecule, the TGI (SK-MEL-5 melanoma) was greater than 100 µM, the TGI (BT-549 breast) was greater than 100 µM and the TGI (HT29 colon) was greater than 100 µM. For the same molecule, the TGI (SK-MEL-28 melanoma) was greater than 100 µM, the TGI (EKVX NSCLC) was greater than 100 µM and the TGI (K-562 leukemia) was greater than 100 µM. For the same molecule, the TGI (TK-10 renal) was greater than 100 µM, the TGI (SF-539 CNS) was greater than 100 µM and the TGI (UACC-257 melanoma) was greater than 100 µM. The TGI (UO-31 renal) was greater than 100 µM, the TGI (U251 CNS) was greater than 100 µM and the TGI (MDA-MB-231 breast) was greater than 100 µM. For the same molecule, the TGI (NCI-H23 lung) was greater than 100 µM, the TGI (A549 NSCLC) was greater than 100 µM and the TGI (NCI/ADR-RES ovarian) was greater than 100 µM. It also gave a TGI (LOX IMVI melanoma) greater than 100 µM, a TGI (SK-OV-3 ovarian) greater than 100 µM and a TGI (OVCAR-3 ovarian) greater than 100 µM. For the same molecule, the TGI (UACC-62 melanoma) was greater than 100 µM, the TGI (MDA-MB-435) was greater than 100 µM and the TGI (HOP-62 NSCLC) was greater than 100 µM. For the same molecule, the TGI (PC-3 prostate) was greater than 100 µM, the TGI (DU-145 prostate) was greater than 100 µM and the TGI (CCRF-CEM leukemia) was greater than 100 µM. For the same molecule, the TGI (HCC-2998 colon) was greater than 100 µM, the TGI (MOLT-4 leukemia) was greater than 100 µM and the TGI (HCT-116 colon) was greater than 100 µM. The TGI (MDA-N) was greater than 100 µM, the TGI (HL-60(TB) leukemia) was greater than 100 µM and the TGI (MCF7 breast) was greater than 100 µM. For the same molecule, the TGI (OVCAR-4 ovarian) was greater than 100 µM, the TGI (SF-268 CNS) was greater than 100 µM and the TGI (SNB-19 CNS) was greater than 100 µM. For the same molecule, the TGI (SNB-75 CNS) was greater than 100 µM and the TGI (NCI-H522 lung) was greater than 100 µM.

With `CS(=O)(=O)OCOS(C)(=O)=O` the TGI (NCI-H460 lung) was greater than 100 µM, the TGI (NCI-H226 lung) was greater than 100 µM and the TGI (786-0 renal) was greater than 100 µM. It also gave a TGI (HOP-92 NSCLC) greater than 100 µM, a TGI (OVCAR-5 ovarian) greater than 100 µM and a TGI (COLO 205 colon) greater than 100 µM. It also gave a TGI (IGROV1 ovarian) greater than 100 µM, a TGI (SR leukemia) of 47.9 µM and a TGI (SF-295 CNS) greater than 100 µM. For the same molecule, the TGI (HCT-15 colon) was greater than 100 µM, the TGI (SN12C renal) was greater than 100 µM and the TGI (M14 melanoma) was greater than 100 µM. It also gave a TGI (SW-620 colon) greater than 100 µM, a TGI (OVCAR-8 ovarian) greater than 100 µM and a TGI (KM12 colon) greater than 100 µM. For the same molecule, the TGI (SK-MEL-5 melanoma) was greater than 100 µM, the TGI (BT-549 breast) was greater than 100 µM and the TGI (HT29 colon) was greater than 100 µM. The TGI (SK-MEL-28 melanoma) was greater than 100 µM, the TGI (CAKI-1 renal) was greater than 100 µM and the TGI (EKVX NSCLC) was greater than 100 µM. For the same molecule, the TGI (A498 renal) was greater than 100 µM, the TGI (K-562 leukemia) was greater than 100 µM and the TGI (TK-10 renal) was greater than 100 µM. For the same molecule, the TGI (SF-539 CNS) was greater than 100 µM, the TGI (UACC-257 melanoma) was greater than 100 µM and the TGI (UO-31 renal) was greater than 100 µM. The TGI (U251 CNS) was greater than 100 µM, the TGI (MDA-MB-231 breast) was greater than 100 µM and the TGI (NCI-H23 lung) was greater than 100 µM. The TGI (A549 NSCLC) was greater than 100 µM, the TGI (SK-MEL-2 melanoma) was greater than 100 µM and the TGI (NCI/ADR-RES ovarian) was greater than 100 µM. The TGI (LOX IMVI melanoma) was greater than 100 µM, the TGI (SK-OV-3 ovarian) was greater than 100 µM and the TGI (RPMI-8226 leukemia) was greater than 100 µM. It also gave a TGI (OVCAR-3 ovarian) greater than 100 µM, a TGI (UACC-62 melanoma) greater than 100 µM and a TGI (MDA-MB-435) greater than 100 µM. For the same molecule, the TGI (HOP-62 NSCLC) was greater than 100 µM, the TGI (PC-3 prostate) was greater than 100 µM and the TGI (DU-145 prostate) was greater than 100 µM. For the same molecule, the TGI (CCRF-CEM leukemia) was 44.5 µM, the TGI (HCC-2998 colon) was greater than 100 µM and the TGI (MOLT-4 leukemia) was greater than 100 µM. The TGI (HCT-116 colon) was greater than 100 µM, the TGI (MDA-N) was greater than 100 µM and the TGI (HL-60(TB) leukemia) was greater than 100 µM. For the same molecule, the TGI (MCF7 breast) was greater than 100 µM, the TGI (OVCAR-4 ovarian) was greater than 100 µM and the TGI (SNB-19 CNS) was greater than 100 µM. For the same molecule, the TGI (ACHN renal) was greater than 100 µM.

In the case of `C[Si](C)(C)CNC(=O)OCc1ccccc1`, the TGI (NCI-H460 lung) is reported as greater than 100 µM, the TGI (NCI-H226 lung) is reported as greater than 100 µM and the TGI (786-0 renal) is reported as greater than 100 µM. For the same molecule, the TGI (T-47D breast) was 72.4 µM, the TGI (HOP-92 NSCLC) was greater than 100 µM and the TGI (OVCAR-5 ovarian) was greater than 100 µM. For the same molecule, the TGI (COLO 205 colon) was greater than 100 µM, the TGI (IGROV1 ovarian) was greater than 100 µM and the TGI (SR leukemia) was greater than 100 µM. It also gave a TGI (SF-295 CNS) greater than 100 µM, a TGI (HCT-15 colon) greater than 100 µM and a TGI (SN12C renal) greater than 100 µM. It also gave a TGI (M14 melanoma) greater than 100 µM, a TGI (SW-620 colon) greater than 100 µM and a TGI (OVCAR-8 ovarian) greater than 100 µM. For the same molecule, the TGI (KM12 colon) was greater than 100 µM, the TGI (SK-MEL-5 melanoma) was greater than 100 µM and the TGI (BT-549 breast) was greater than 100 µM. It also gave a TGI (HT29 colon) greater than 100 µM, a TGI (SK-MEL-28 melanoma) greater than 100 µM and a TGI (CAKI-1 renal) greater than 100 µM. It also gave a TGI (EKVX NSCLC) greater than 100 µM, a TGI (A498 renal) greater than 100 µM and a TGI (K-562 leukemia) greater than 100 µM. For the same molecule, the TGI (TK-10 renal) was greater than 100 µM, the TGI (SF-539 CNS) was greater than 100 µM and the TGI (UACC-257 melanoma) was greater than 100 µM. It also gave a TGI (UO-31 renal) greater than 100 µM, a TGI (U251 CNS) greater than 100 µM and a TGI (MDA-MB-231 breast) greater than 100 µM. The TGI (NCI-H23 lung) was greater than 100 µM, the TGI (A549 NSCLC) was greater than 100 µM and the TGI (SK-MEL-2 melanoma) was greater than 100 µM. It also gave a TGI (NCI/ADR-RES ovarian) greater than 100 µM, a TGI (LOX IMVI melanoma) greater than 100 µM and a TGI (SK-OV-3 ovarian) greater than 100 µM. The TGI (RPMI-8226 leukemia) was greater than 100 µM, the TGI (OVCAR-3 ovarian) was greater than 100 µM and the TGI (UACC-62 melanoma) was greater than 100 µM. The TGI (MDA-MB-435) was greater than 100 µM, the TGI (HOP-62 NSCLC) was greater than 100 µM and the TGI (PC-3 prostate) was greater than 100 µM. The TGI (DU-145 prostate) was greater than 100 µM, the TGI (CCRF-CEM leukemia) was greater than 100 µM and the TGI (HCC-2998 colon) was greater than 100 µM. It also gave a TGI (HCT-116 colon) greater than 100 µM, a TGI (MDA-N) greater than 100 µM and a TGI (HL-60(TB) leukemia) greater than 100 µM. For the same molecule, the TGI (MCF7 breast) was greater than 100 µM, the TGI (OVCAR-4 ovarian) was greater than 100 µM and the TGI (SF-268 CNS) was greater than 100 µM. It also gave a TGI (SNB-19 CNS) greater than 100 µM, a TGI (SNB-75 CNS) greater than 100 µM and a TGI (NCI-H522 lung) greater than 100 µM. The TGI (ACHN renal) was greater than 100 µM.
